System: hypertensive subjects
Experiment: Seated automated office blood pressure (AOBP) in randomized, placebo-controlled, dose-ranging study
Format: in vivo, human
Design: Difference from placebo in change in blood pressure: unit not given here
Experimental: A randomized, double-blinded, placebo-controlled, dose-ranging, multicenter study was conducted to evaluate the effect of orally administered Compound A HBr on blood pressure for the treatment of hypertension in male and female subjects ≥18 years of age.
The study consists of two parts. For enrollment into Part 1 of the study, a subject's value of plasma renin activity (PRA) must be ≤1 ng/mL/h based on morning measurement. If the value of PRA >1 ng/mL/h based on morning measurement, then subjects may be eligible to enter Part 2 of the study.
For Part 1, 163 enrolled subjects ≥18 years of age were randomized into 6 equal treatment groups (1:1:1:1:1:1) to 12.5 mg BID, 25 mg BID, 12.5 mg QD, 50 mg QD, 100 mg QD, or placebo. After a review of interim clinical data, the 2 lowest dose levels (12.5 mg QD and 12.5 mg BID) were stopped for future randomization due to a lack of consistent meaningful reduction of blood pressure, but the patients randomized to that point remained in the study through completion. Thus, after the review of interim clinical data, subjects were randomized into 4 equal treatment groups (1:1:1:1) to 25 mg BID, 50 mg QD, 100 mg QD, or placebo.
For Part 2, 36 enrolled subjects ≥18 years of age were randomized (5:1) to either 100 mg QD Compound A HBr or placebo such that the Compound A HBr treatment group consisted of approximately 30 subjects and the placebo treatment group will consist of approximately 6 subjects.
Subjects orally administered the assigned study drug (Compound A HBr or placebo) according to the assigned dosing regimen for 8 weeks beginning on Study Day 1. All subjects in Part 1 (regardless of dosing group) received BID dosing to preserve the integrity of the blind; active drug is administered as the morning dose for all QD dose groups. Subjects returned to the research facility or were seen by the clinical investigator or approved home health care professional at the end of Study Weeks 1, 2, 3, 4, 5, 6, 7, and 8 (±2 days) for protocol-defined efficacy and safety assessments and procedures, assessment of adverse events (AEs), and confirmation of compliance with study drug usage. Subjects also completed a telephone visit and blood pressure (BP) check at home approximately 3 days post last dose of study drug. Subjects attended up to 14 full clinic visits, including a pre-Screening visit, a Screening/start of Placebo Run-in visit, a second visit during Placebo Run-in, a clinic visit to initiate the ABPM procedure, a Randomization visit, 8 weekly visits during double-blind treatment, and an end-of-study visit scheduled 4 weeks after the last study treatment for final efficacy and safety assessments.
An automated oscillometric sphygmomanometer device was used to measure the subjects' systolic and diastolic blood pressure in office after approximately 5 minutes of rest in the seated position.
The primary endpoint is the change in office-measured (mean of last 2 of 5 unattended measurements using an automated oscillometric sphygmomanometer device after approximately 5 minutes of rest in the seated position) systolic blood pressure (SBP) from baseline to the end of Study Week 8.
Secondary endpoints of this study were: • (a) Change in 24-hour ambulatory blood pressure monitoring (ABPM) parameters (systolic and diastolic) from baseline to the end of Study Week 7. • (b) Change in office-measured SBP from baseline to the end of Study Weeks 1, 2, 3, 4, 5, 6, and 7. • (c) Change in office-measured diastolic blood pressure (DBP) from baseline to the end of Study Weeks 1, 2, 3, 4, 5, 6, 7, and 8. • (d) Proportion of subjects who achieve office-measured BP of ≤130/80 mm Hg by the end of Study Week 8.

[1] = 12.5 mg QD, Week 1, Part 1, FAS
[2] = 12.5 mg QD, Week 2, Part 1, FAS
[3] = 12.5 mg QD, Week 3, Part 1, FAS
[4] = 12.5 mg QD, Week 4, Part 1, FAS
[5] = 12.5 mg QD, Week 5, Part 1, FAS
[6] = 12.5 mg QD, Week 6, Part 1, FAS
[7] = 12.5 mg QD, Week 7, Part 1, FAS
[8] = 12.5 mg QD, Week 8, Part 1, FAS

CC(=O)N[C@H]1CC[C@H](NC(=O)CN2CCN(c3nncc(-c4ccc(C)cc4)n3)CC2)CC1 [Compound A HBr] was tested, and the “Difference from placebo in change in blood pressure” value (“Difference from placebo in change” below) (12.5 mg QD, BMI >30) was −2.5, the “Difference from placebo in change” value (12.5 mg QD, Baseline BPsys Low tertile) was −10.7 and the “Difference from placebo in change” value (12.5 mg QD, Thiazide No) was 2.6. The “Seated AOBP DBP change from baseline (CFB), Mean (SD)” value (“Seated AOBP DBP change … (SD)” below) [1] was 2.87 (12.31) mmHg, the “Seated AOBP DBP, Mean (SD)” value [1] was 85.26 (13.88) mmHg and the “Seated AOBP SBP change from baseline (CFB), Mean (SD)” value (“Seated AOBP SBP change … (SD)” below) [1] was −5.65 (13.96) mmHg. The “Seated AOBP SBP, Mean (SD)” value [1] was 141.43 (15.98) mmHg, the “Seated AOBP DBP change … (SD)” value [2] was 0.68 (8.89) mmHg and the “Seated AOBP DBP, Mean (SD)” value [2] was 81.23 (9.21) mmHg. For the same compound, the “Seated AOBP SBP change … (SD)” value [2] was −1.86 (16.36) mmHg, the “Seated AOBP SBP, Mean (SD)” value [2] was 143.73 (17.32) mmHg and the “Seated AOBP DBP change … (SD)” value [3] was −1.20 (9.13) mmHg. For the same compound, the “Seated AOBP DBP, Mean (SD)” value [3] was 81.80 (13.73) mmHg, the “Seated AOBP SBP change … (SD)” value [3] was −4.15 (13.14) mmHg and the “Seated AOBP SBP, Mean (SD)” value [3] was 142.80 (18.14) mmHg. The “LSM Δ with Placebo, seated AOBP DBP (MMRM)” value [4] was −1.96 mmHg, the “Modelled (MMRM) LSM (SEM) change from baseline, seated AOBP DBP” value [4] was −2.50 (1.60) mmHg and the “Seated AOBP DBP change … (SD)” value [4] was −1.80 (9.84) mmHg. For the same compound, the “Seated AOBP DBP, Mean (SD)” value [4] was 81.20 (14.03) mmHg, the “Seated AOBP SBP change … (SD)” value [4] was −3.95 (15.74) mmHg and the “Seated AOBP SBP, Mean (SD)” value [4] was 143.00 (18.03) mmHg. For the same compound, the “Seated AOBP DBP change … (SD)” value [5] was 0.82 (14.46) mmHg, the “Seated AOBP DBP, Mean (SD)” value [5] was 83.74 (14.32) mmHg and the “Seated AOBP SBP change … (SD)” value [5] was −3.53 (12.49) mmHg. For the same compound, the “Seated AOBP SBP, Mean (SD)” value [5] was 144.21 (13.11) mmHg, the “Seated AOBP DBP change … (SD)” value [6] was −4.17 (10.04) mmHg and the “Seated AOBP DBP, Mean (SD)” value [6] was 79.06 (13.07) mmHg. The “Seated AOBP SBP change … (SD)” value [6] was −8.64 (16.52) mmHg, the “Seated AOBP DBP change … (SD)” value [7] was −6.11 (12.05) mmHg and the “Seated AOBP DBP, Mean (SD)” value [7] was 77.11 (12.74) mmHg. The “Seated AOBP SBP change … (SD)” value [7] was −11.08 (19.26) mmHg, the “Seated AOBP SBP, Mean (SD)” value [7] was 136.56 (19.58) mmHg and the “LSM Δ from Placebo, change from baseline in seated AOBP SBP (MMRM)” value [8] was −1.53 mmHg. For the same compound, the “LSM Δ with Placebo, seated AOBP DBP (MMRM)” value [8] was −2.12 mmHg, the “Modelled (MMRM) LSM (SEM) change from baseline, seated AOBP DBP” value [8] was −3.76 (2.02) mmHg and the “Modelled (MMRM) LSM (SEM) change from baseline, seated AOBP SBP” value [8] was −5.63 (3.16) mmHg. The “Seated AOBP DBP change … (SD)” value [8] was −1.78 (13.33) mmHg, the “Seated AOBP DBP, Mean (SD)” value [8] was 81.44 (17.24) mmHg and the “Seated AOBP SBP change … (SD)” value [8] was −6.86 (19.85) mmHg. For the same compound, the “Seated AOBP SBP, Mean (SD)” value [8] was 140.78 (22.01) mmHg, the “Subjects with seated AOBP SBP/DBP ≤130/80 mmHg: No” value [8] was 17 (73.9) n (%) and the “Subjects with seated AOBP SBP/DBP ≤130/80 mmHg: Yes” value [8] was 6 (26.1) n (%). The “Difference from placebo in change” value (25 mg BID, BMI 25-30) was −1.1, the “Difference from placebo in change” value (25 mg BID, BMI >30) was −9.1 and the “Proportion of subjects with AOBP ≤130/80 mmHg” value (25 mg BID, Part 1, Week 8) was 43.3%. The “Difference from placebo in change” value (25 mg BID, Thiazide No) was −4.7.

Reference: patent US20260053811A1, “METHODS OF TREATING HYPERTENSION IN OBESE SUBJECTS” (Mineralys Therapeutics, Inc., priority 2022, published 2026)
